Results published in patent US20180110762A1, “Compositions Methods for Treating Chronic Kidney Disease” (Merck Sharp & Dohme Corp, priority 2015, published 2018).

What was measured:
[1] = molecular target: T1, Human recombinant integrin α5β1 (Homo sapiens, UniProt P05556+P08648); experiment: Thermal shift assay (differential scanning fluorimetry), α5β1; type: binding; conditions: α5β1, 20 μM Compound A
T1 construct: purchased R&D Systems
Procedure: Differential scanning fluorimetry was performed on a LightCycler 480 II, real-time PCR instrument (Roche Diagnostics). Human recombinant integrins from R&D Systems (αvβ1, αvβ3 and α5β1) were reconstituted at a concentration of […] in assay buffer (20 mM HEPES, pH=7.3, 100 mM NaCl, 1 mM MgCl2, 1 mM MnCl2) and diluted in assay buffer with Sypro orange (SIGMA) to a final concentration of 400 nM integrin and 5× Sypro orange. A volume of 4.9 μL of this mixture of protein and dye was transferred to a 384-well plate and 100 nL of DMSO or Compound A, dissolved in DMSO, were added using an Echo 555 instrument (Labcyte). The final concentration of Compound A in the assay was 20 μM. After mixing, the assay plate was sealed, spun at 1,000×g for two minutes, and subsequently heated from 25 to 99° C. over the course of 31 min in the LightCycler 480 II instrument. Fluorescence intensity was measured using excitation/emission wavelengths of 465 and 580 nm, respectively. Changes in protein thermal stability (ΔTm) upon compound binding were analyzed by using LightCycler 480 (software provided by the manufacturer).

[2] = tested on: male obese ZSF1 rats (diabetic nephropathy model); experiment: ZSF1 rat 28-week in-feed study: urinary protein (UPCR, 24 h excretion); type: in vivo; conditions: for 24 h Urinary Protein Excretion / UPCR (urinary protein/creatinine ratio): obese ZSF1 rats
Procedure: The effects of Compound A (“A”) on renal function, plasma triglycerides, plasma cholesterol, kidney collagen I, kidney collagen III, renal histology, glomerular filtration rate, fibrosis score, and mRNA gene expression (profibrotic genes and integrin β3) were evaluated in male obese ZSF1 rats (a hybrid F1 of Zucker diabetic fatty rat and spontaneously hypertensive heart failure rat; a diabetic nephropathy model) when administered as in-feed for 28 weeks. Sixty obese male ZSF1 rats were randomized to five groups: Obese control (n=12), Compound A 60 mpk (n=12), Compound A 200 mpk (n=12), Compound A 400 mpk (n=12), Enalapril 10 mpk (n=12); Eight lean male ZSF1 rats were used for normal control. Renal functional changes were monitored by blood and urine analysis following in-feed dosing for 28 weeks. Compound exposure was also monitored during the study.

T1 sequence (P08648 42-995 limits assumed): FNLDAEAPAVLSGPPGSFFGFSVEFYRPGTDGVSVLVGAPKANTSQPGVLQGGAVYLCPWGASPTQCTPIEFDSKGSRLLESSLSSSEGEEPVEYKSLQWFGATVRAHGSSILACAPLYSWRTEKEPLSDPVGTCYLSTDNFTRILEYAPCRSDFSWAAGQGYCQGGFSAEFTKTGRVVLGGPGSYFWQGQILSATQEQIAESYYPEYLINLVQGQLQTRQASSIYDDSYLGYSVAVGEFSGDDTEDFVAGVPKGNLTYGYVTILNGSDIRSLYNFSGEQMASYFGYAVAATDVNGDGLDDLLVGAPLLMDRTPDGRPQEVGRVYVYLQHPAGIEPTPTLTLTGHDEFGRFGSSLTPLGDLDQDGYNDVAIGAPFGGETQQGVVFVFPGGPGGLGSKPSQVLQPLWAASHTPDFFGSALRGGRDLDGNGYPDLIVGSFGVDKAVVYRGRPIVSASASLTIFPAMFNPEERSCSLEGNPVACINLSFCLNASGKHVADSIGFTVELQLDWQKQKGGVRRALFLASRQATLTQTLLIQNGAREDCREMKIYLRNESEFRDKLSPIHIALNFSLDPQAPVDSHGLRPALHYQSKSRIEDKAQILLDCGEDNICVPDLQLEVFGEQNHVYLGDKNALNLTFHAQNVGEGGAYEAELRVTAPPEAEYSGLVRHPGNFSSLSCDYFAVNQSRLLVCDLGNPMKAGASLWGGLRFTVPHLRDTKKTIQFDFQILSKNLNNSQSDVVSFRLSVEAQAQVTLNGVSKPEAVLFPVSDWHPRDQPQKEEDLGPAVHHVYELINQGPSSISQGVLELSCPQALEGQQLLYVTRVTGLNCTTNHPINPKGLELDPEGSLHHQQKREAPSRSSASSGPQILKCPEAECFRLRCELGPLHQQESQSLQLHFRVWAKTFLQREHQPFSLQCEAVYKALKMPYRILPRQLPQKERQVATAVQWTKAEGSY
T1 sequence (P05556 21-728 limits assumed): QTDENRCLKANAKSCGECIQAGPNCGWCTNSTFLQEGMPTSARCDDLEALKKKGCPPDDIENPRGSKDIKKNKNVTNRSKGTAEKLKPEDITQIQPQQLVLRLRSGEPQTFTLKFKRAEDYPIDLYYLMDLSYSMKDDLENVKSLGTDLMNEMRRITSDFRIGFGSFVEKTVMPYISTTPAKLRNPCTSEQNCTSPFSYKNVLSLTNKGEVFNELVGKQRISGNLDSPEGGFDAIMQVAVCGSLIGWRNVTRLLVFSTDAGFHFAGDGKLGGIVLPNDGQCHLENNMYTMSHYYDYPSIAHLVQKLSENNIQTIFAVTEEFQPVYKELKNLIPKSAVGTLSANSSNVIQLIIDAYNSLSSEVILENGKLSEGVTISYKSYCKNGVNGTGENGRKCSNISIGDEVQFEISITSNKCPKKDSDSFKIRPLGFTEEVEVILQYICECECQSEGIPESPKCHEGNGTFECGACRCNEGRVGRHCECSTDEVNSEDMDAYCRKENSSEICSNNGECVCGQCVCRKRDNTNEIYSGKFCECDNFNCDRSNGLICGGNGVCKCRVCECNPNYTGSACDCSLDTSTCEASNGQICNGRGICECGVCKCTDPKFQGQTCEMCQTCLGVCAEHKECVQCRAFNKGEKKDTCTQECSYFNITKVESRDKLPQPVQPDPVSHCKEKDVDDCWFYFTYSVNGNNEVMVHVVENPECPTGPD

ΔTm at 20 µM ([1]; first of two experiments): 8.1 °C
ΔTm at 20 µM ([1]; second of two experiments): 14 °C
Compound: COc1ccc([C@H](CC(=O)O)N2CCN(CCCc3ccc4c(n3)NCCC4)C2=O)cn1 [Compound A, 3-{2-Oxo-3-[3-(5,6,7,8-tetrahydro-[1,8]naphthyridin-2-yl)-propyl]imidazolidin-1-yl}-3 (S)-(6-methoxy-pyridin-3-yl)-propionic acid]
effect on urinary protein/creatinine ratio (UPCR) ([2]; 400 mpk, 16-, 21-, 24- and 28-week of treatment): significantly decreased
effect on 24 h urinary protein excretion ([2]; 400 mpk, 16-, 24- and 28-week of treatment): significantly decreased
renal protection: proteinuria and albuminuria ([2]; ZSF-1 rats vs untreated obese ZSF-1 rats (summary)): ameliorating proteinuria and albuminuria
24 h Urinary Protein Excretion ([2]; 60 mpk in-feed, week 1): 137.2 ± 12.7 mg/24 h
UPCR (urinary protein/creatinine ratio) ([2]; 60 mpk in-feed, week 1): 12.3 ± 1.0 mg/mg
24 h Urinary Protein Excretion ([2]; 60 mpk in-feed, week 2): 139.6 ± 11.8 mg/24 h
UPCR (urinary protein/creatinine ratio) ([2]; 60 mpk in-feed, week 2): 11.9 ± 1.0 mg/mg
24 h Urinary Protein Excretion ([2]; 60 mpk in-feed, week 4): 158.4 ± 13.7 mg/24 h
UPCR (urinary protein/creatinine ratio) ([2]; 60 mpk in-feed, week 4): 13.4 ± 1.1 mg/mg
24 h Urinary Protein Excretion ([2]; 60 mpk in-feed, week 6): 197.9 ± 15.7 mg/24 h
UPCR (urinary protein/creatinine ratio) ([2]; 60 mpk in-feed, week 6): 16.6 ± 1.2 mg/mg
24 h Urinary Protein Excretion ([2]; 60 mpk in-feed, week 8): 265.7 ± 18.3 mg/24 h
UPCR (urinary protein/creatinine ratio) ([2]; 60 mpk in-feed, week 8): 20.2 ± 1.4 mg/mg
24 h Urinary Protein Excretion ([2]; 60 mpk in-feed, week 12): 425.3 ± 21.6 mg/24 h
UPCR (urinary protein/creatinine ratio) ([2]; 60 mpk in-feed, week 12): 30.8 ± 1.7 mg/mg
24 h Urinary Protein Excretion ([2]; 60 mpk in-feed, week 16): 462.2 ± 30.4 mg/24 h
UPCR (urinary protein/creatinine ratio) ([2]; 60 mpk in-feed, week 16): 27.3 ± 1.7 mg/mg
24 h Urinary Protein Excretion ([2]; 60 mpk in-feed, week 21): 486.2 ± 39.2 mg/24 h
UPCR (urinary protein/creatinine ratio) ([2]; 60 mpk in-feed, week 21): 27.7 ± 2.0+ mg/mg
24 h Urinary Protein Excretion ([2]; 60 mpk in-feed, week 24): 582.0 ± 43.9 mg/24 h
UPCR (urinary protein/creatinine ratio) ([2]; 60 mpk in-feed, week 24): 34.4 ± 2.3 mg/mg
24 h Urinary Protein Excretion ([2]; 60 mpk in-feed, week 28): 654.3 ± 48.1 mg/24 h
UPCR (urinary protein/creatinine ratio) ([2]; 60 mpk in-feed, week 28): 37.5 ± 2.8 mg/mg
24 h Urinary Protein Excretion ([2]; 60 mpk in-feed, week −2): 128.8 ± 11.0 mg/24 h
UPCR (urinary protein/creatinine ratio) ([2]; 60 mpk in-feed, week −2): 10.9 ± 0.9 mg/mg
24 h Urinary Protein Excretion ([2]; 200 mpk in-feed, week 1): 117.7 ± 9.4 mg/24 h
UPCR (urinary protein/creatinine ratio) ([2]; 200 mpk in-feed, week 1): 10.7 ± 0.8 mg/mg
24 h Urinary Protein Excretion ([2]; 200 mpk in-feed, week 2): 124.9 ± 10.9 mg/24 h
UPCR (urinary protein/creatinine ratio) ([2]; 200 mpk in-feed, week 2): 10.9 ± 1.0 mg/mg
24 h Urinary Protein Excretion ([2]; 200 mpk in-feed, week 4): 140.0 ± 12.4 mg/24 h
UPCR (urinary protein/creatinine ratio) ([2]; 200 mpk in-feed, week 4): 12.1 ± 1.1 mg/mg
24 h Urinary Protein Excretion ([2]; 200 mpk in-feed, week 6): 167.1 ± 15.0 mg/24 h
UPCR (urinary protein/creatinine ratio) ([2]; 200 mpk in-feed, week 6): 14.1 ± 1.2 mg/mg
24 h Urinary Protein Excretion ([2]; 200 mpk in-feed, week 8): 233.9 ± 18.7 mg/24 h
UPCR (urinary protein/creatinine ratio) ([2]; 200 mpk in-feed, week 8): 18.0 ± 1.5 mg/mg
24 h Urinary Protein Excretion ([2]; 200 mpk in-feed, week 12): 400.5 ± 20.5 mg/24 h
UPCR (urinary protein/creatinine ratio) ([2]; 200 mpk in-feed, week 12): 28.7 ± 1.6 mg/mg
24 h Urinary Protein Excretion ([2]; 200 mpk in-feed, week 16): 452.2 ± 27.6 mg/24 h
UPCR (urinary protein/creatinine ratio) ([2]; 200 mpk in-feed, week 16): 26.3 ± 1.5 mg/mg
24 h Urinary Protein Excretion ([2]; 200 mpk in-feed, week 21): 489.0 ± 28.6 mg/24 h
UPCR (urinary protein/creatinine ratio) ([2]; 200 mpk in-feed, week 21): 28.1 ± 1.6+ mg/mg
24 h Urinary Protein Excretion ([2]; 200 mpk in-feed, week 24): 541.6 ± 32.3 mg/24 h
UPCR (urinary protein/creatinine ratio) ([2]; 200 mpk in-feed, week 24): 32.0 ± 1.9 mg/mg
24 h Urinary Protein Excretion ([2]; 200 mpk in-feed, week 28): 646.2 ± 44.6 mg/24 h
UPCR (urinary protein/creatinine ratio) ([2]; 200 mpk in-feed, week 28): 36.5 ± 2.3 mg/mg
24 h Urinary Protein Excretion ([2]; 200 mpk in-feed, week −2): 122.3 ± 9.5 mg/24 h
UPCR (urinary protein/creatinine ratio) ([2]; 200 mpk in-feed, week −2): 10.7 ± 0.9 mg/mg
24 h Urinary Protein Excretion ([2]; 400 mpk in-feed, week 1): 138.5 ± 11.3 mg/24 h
UPCR (urinary protein/creatinine ratio) ([2]; 400 mpk in-feed, week 1): 12.3 ± 0.9 mg/mg
24 h Urinary Protein Excretion ([2]; 400 mpk in-feed, week 2): 148.8 ± 12.3 mg/24 h
UPCR (urinary protein/creatinine ratio) ([2]; 400 mpk in-feed, week 2): 12.5 ± 0.9 mg/mg
24 h Urinary Protein Excretion ([2]; 400 mpk in-feed, week 4): 148.0 ± 8.3 mg/24 h
UPCR (urinary protein/creatinine ratio) ([2]; 400 mpk in-feed, week 4): 12.7 ± 0.6 mg/mg
24 h Urinary Protein Excretion ([2]; 400 mpk in-feed, week 6): 162.6 ± 11.7 mg/24 h
UPCR (urinary protein/creatinine ratio) ([2]; 400 mpk in-feed, week 6): 13.8 ± 0.9 mg/mg
24 h Urinary Protein Excretion ([2]; 400 mpk in-feed, week 8): 224.8 ± 16.3 mg/24 h
UPCR (urinary protein/creatinine ratio) ([2]; 400 mpk in-feed, week 8): 17.8 ± 1.2 mg/mg
24 h Urinary Protein Excretion ([2]; 400 mpk in-feed, week 12): 358.4 ± 19.9 mg/24 h
UPCR (urinary protein/creatinine ratio) ([2]; 400 mpk in-feed, week 12): 26.9 ± 1.5 mg/mg
24 h Urinary Protein Excretion ([2]; 400 mpk in-feed, week 16): 360.5 ± 19.7++ mg/24 h
UPCR (urinary protein/creatinine ratio) ([2]; 400 mpk in-feed, week 16): 20.9 ± 1.0++ mg/mg
24 h Urinary Protein Excretion ([2]; 400 mpk in-feed, week 21): 448.1 ± 19.6 mg/24 h
UPCR (urinary protein/creatinine ratio) ([2]; 400 mpk in-feed, week 21): 26.0 ± 1.3++ mg/mg
24 h Urinary Protein Excretion ([2]; 400 mpk in-feed, week 24): 483.8 ± 27.1++ mg/24 h
UPCR (urinary protein/creatinine ratio) ([2]; 400 mpk in-feed, week 24): 28.1 ± 1.7++ mg/mg
24 h Urinary Protein Excretion ([2]; 400 mpk in-feed, week 28): 554.9 ± 28.3++ mg/24 h
UPCR (urinary protein/creatinine ratio) ([2]; 400 mpk in-feed, week 28): 31.2 ± 1.7++ mg/mg
24 h Urinary Protein Excretion ([2]; 400 mpk in-feed, week −2): 127.0 ± 11.0 mg/24 h
UPCR (urinary protein/creatinine ratio) ([2]; 400 mpk in-feed, week −2): 10.8 ± 0.9 mg/mg
